The target in this experiment is T1, Trx-6×His-BCL6 (human BCL6 BTB domain covering amino-acid sequence 5-129) (Homo sapiens, UniProt P41182).
T1 construct: made in house
As to the kind of experiment: HTRF assay (BCL6 / BCOR peptide). In kind it is binding. The following applies: 1 nM Trx-6×His-BCL6, 300 nM BCOR-AF633 peptide, 2 hours incubation at room temperature; read-out: HTRF avg pIC50 (converted). Here is the method:
After 2 hours incubation at room temperature the plate was read on a Pherastar FSX (BMG Labtech) plate reader equipped with 337 nm laser excitation filter, a first emission filter at 620 nm and a second emission filter at 665 nm. The % inhibition at each concentration was calculated by normalising FRET ratio to the appropriate high (DMSO with all reagents) and low (DMSO without BCL6) controls.

Turning to `CC1CN(c2ncc(Cl)c(Nc3ccc4c(c3)c3c(c(=O)n4C)OCC(F)(F)[C@H](C4CC4)N3)n2)CC(C)S1(=O)=O` (stereo partly drawn) [Example 12x11, (2S)-10-((5-chloro-2-(2,6-dimethyl-1,1-dioxidothiomorpholino)pyrimidin-4-yl)amino)-2-cyclopropyl-3,3-difluoro-7-methyl-1,2,3,4-tetrahydro-[1,4]oxazepino[2,3-c]quinolin-6(7H)-one], the IC50 is 1.62 nM.

Take `CC1CCC(C)N(c2ncc(Cl)c(Nc3ccc4c(c3)c3c(c(=O)n4C)OCC(F)(F)[C@H](C4CC4)N3)n2)C1` (stereo partly drawn) [Example 12x12, (2S)-10-((5-chloro-2-(2,5-dimethylpiperidin-1-yl)pyrimidin-4-yl)amino)-2-cyclopropyl-3,3-difluoro-7-methyl-1,2,3,4-tetrahydro-[1,4]oxazepino[2,3-c]quinolin-6(7H)-one]: the IC50 was 56.2 nM.

For the compound `C[C@H]1C[C@H](O)CN(c2ncc(Cl)c(Nc3ccc4c(c3)c3c(c(=O)n4C)OCC(F)(F)[C@H](C4CC4)N3)n2)C1` [Example 12x13, (S)-10-((5-chloro-2-((3S,5S)-3-hydroxy-5-methylpiperidin-1-yl)pyrimidin-4-yl)amino)-2-cyclopropyl-3,3-difluoro-7-methyl-1,2,3,4-tetrahydro-[1,4]oxazepino[2,3-c]quinolin-6(7H)-one], the IC50 was 5.62 nM. Consider `Cn1c(=O)c2c(c3cc(Nc4nc(N5CCNCC(O)C5)ncc4Cl)ccc31)N[C@@H](C1CC1)C(F)(F)CO2` (stereo partly drawn) [Example 12x14, (2S)-10-((5-chloro-2-(6-hydroxy-1,4-diazepan-1-yl)pyrimidin-4-yl)amino)-2-cyclopropyl-3,3-difluoro-7-methyl-1,2,3,4-tetrahydro-[1,4]oxazepino[2,3-c]quinolin-6(7H)-one], for which the IC50 is 3.47 nM. The value for `[2H]C([2H])([2H])N1CCN(c2ncc(Cl)c(Nc3ccc4c(c3)c3c(c(=O)n4C)OCC(F)(F)[C@H](C4CC4)N3)n2)CC(O)C1` (stereo partly drawn) [Example 12x15-d3, (2S)-10-((5-chloro-2-(6-hydroxy-4-(methyl-d3)-1,4-diazepan-1-yl)pyrimidin-4-yl)amino)-2-cyclopropyl-3,3-difluoro-7-methyl-1,2,3,4-tetrahydro-[1,4]oxazepino[2,3-c]quinolin-6(7H)-one] was 1.78 nM; that for `C#CC1CCCN(c2ncc(Cl)c(Nc3ccc4c(c3)c3c(c(=O)n4C)OCC(F)(F)[C@H](C4CC4)N3)n2)C1` (stereo partly drawn) [Example 12x22, (2S)-10-((5-chloro-2-(3-ethynylpiperidin-1-yl)pyrimidin-4-yl)amino)-2-cyclopropyl-3,3-difluoro-7-methyl-1,2,3,4-tetrahydro-[1,4]oxazepino[2,3-c]quinolin-6(7H)-one] was 22.9 nM. With `Cn1c(=O)c2c(c3cc(Nc4nc(N5CCCC(C#N)C5)ncc4Cl)ccc31)N[C@@H](C1CC1)C(F)(F)CO2` (stereo partly drawn) [Example 12x23, 1-(5-chloro-4-(((S)-2-cyclopropyl-3,3-difluoro-7-methyl-6-oxo-1,2,3,4,6,7-hexahydro-[1,4]oxazepino[2,3-c]quinolin-10-yl)amino)pyrimidin-2-yl)piperidine-3-carbonitrile], the IC50 is 5.13 nM. On to `Cn1c(=O)c2c(c3cc(Nc4nc(NC5CCC(F)(F)CC5)ncc4Cl)ccc31)N[C@@H](C1CC1)C(F)(F)CO2` [Example 12x24, (S)-10-((5-chloro-2-((4,4-difluorocyclohexyl)amino)pyrimidin-4-yl)amino)-2-cyclopropyl-3,3-difluoro-7-methyl-1,2,3,4-tetrahydro-[1,4]oxazepino[2,3-c]quinolin-6(7H)-one], for which the IC50 was 14.5 nM. The value for `Cn1c(=O)c2c(c3cc(Nc4nc(N5CCCC6CC65)ncc4Cl)ccc31)N[C@@H](C1CC1)C(F)(F)CO2` (stereo partly drawn) [Example 12x25, (2S)-10-((2-(2-azabicyclo[4.1.0]heptan-2-yl)-5-chloropyrimidin-4-yl)amino)-2-cyclopropyl-3,3-difluoro-7-methyl-1,2,3,4-tetrahydro-[1,4]oxazepino[2,3-c]quinolin-6(7H)-one] was 15.8 nM. Turning to `Cn1c(=O)c2c(c3cc(Nc4nc(N5CCNC(C(F)F)C5)ncc4Cl)ccc31)N[C@@H](C1CC1)C(F)(F)CO2` (stereo partly drawn) [Example 12x26, (2S)-10-((5-chloro-2-(3-(difluoromethyl)piperazin-1-yl)pyrimidin-4-yl)amino)-2-cyclopropyl-3,3-difluoro-7-methyl-1,2,3,4-tetrahydro-[1,4]oxazepino[2,3-c]quinolin-6(7H)-one], the IC50 was 1.91 nM. `C[C@H]1C[C@@H](OCCN(C)C)CN(c2ncc(Cl)c(Nc3ccc4c(c3)c3c(c(=O)n4C)OCC(F)(F)[C@H](C4CC4)N3)n2)C1` [Example 12x28, (S)-10-((5-chloro-2-((3R,5S)-3-(2-(dimethylamino)ethoxy)-5-methylpiperidin-1-yl)pyrimidin-4-yl)amino)-2-cyclopropyl-3,3-difluoro-7-methyl-1,2,3,4-tetrahydro-[1,4]oxazepino[2,3-c]quinolin-6(7H)-one]: the IC50 was 3.16 nM. The value for `CC1CC(C(=O)N2CCC2)CN(c2ncc(Cl)c(Nc3ccc4c(c3)c3c(c(=O)n4C)OCC(F)(F)[C@H](C4CC4)N3)n2)C1` (stereo partly drawn) [Example 12x30, (2S)-10-((2-(3-(azetidine-1-carbonyl)-5-methylpiperidin-1-yl)-5-chloropyrimidin-4-yl)amino)-2-cyclopropyl-3,3-difluoro-7-methyl-1,2,3,4-tetrahydro-[1,4]oxazepino[2,3-c]quinolin-6(7H)-one] was 2 nM. As to `CC1CC(C(=O)N2CC(F)(F)C2)CN(c2ncc(Cl)c(Nc3ccc4c(c3)c3c(c(=O)n4C)OCC(F)(F)[C@H](C4CC4)N3)n2)C1` (stereo partly drawn) [Example 12x31, (2S)-10-((5-chloro-2-(3-(3,3-difluoroazetidine-1-carbonyl)-5-methylpiperidin-1-yl)pyrimidin-4-yl)amino)-2-cyclopropyl-3,3-difluoro-7-methyl-1,2,3,4-tetrahydro-[1,4]oxazepino[2,3-c]quinolin-6(7H)-one], the IC50 was 3.8 nM. As for `Cn1c(=O)c2c(c3cc(Nc4nc(N5CC(CO)C5)ncc4Cl)ccc31)N[C@@H](C1CC1)C(F)(F)CO2` [Example 12x32, (S)-10-((5-chloro-2-(3-(hydroxymethyl)azetidin-1-yl)pyrimidin-4-yl)amino)-2-cyclopropyl-3,3-difluoro-7-methyl-1,2,3,4-tetrahydro-[1,4]oxazepino[2,3-c]quinolin-6(7H)-one], the IC50 was 3.72 nM. Take `Cn1c(=O)c2c(c3cc(Nc4nc(N5CC[C@H]5CO)ncc4Cl)ccc31)N[C@@H](C1CC1)C(F)(F)CO2` [Example 12x33a, (S)-10-((5-chloro-2-((S)-2-(hydroxymethyl)azetidin-1-yl)pyrimidin-4-yl)amino)-2-cyclopropyl-3,3-difluoro-7-methyl-1,2,3,4-tetrahydro-[1,4]oxazepino[2,3-c]quinolin-6(7H)-one]: the IC50 was 2.14 nM.

Regarding `Cn1c(=O)c2c(c3cc(Nc4nc(N5CC[C@@H]5CO)ncc4Cl)ccc31)N[C@@H](C1CC1)C(F)(F)CO2` [Example 12x33b, (S)-10-((5-chloro-2-((R)-2-(hydroxymethyl)azetidin-1-yl)pyrimidin-4-yl)amino)-2-cyclopropyl-3,3-difluoro-7-methyl-1,2,3,4-tetrahydro-[1,4]oxazepino[2,3-c]quinolin-6(7H)-one], the IC50 is 7.76 nM. The value for `Cn1c(=O)c2c(c3cc(Nc4nc(N5CC(CF)C5)ncc4Cl)ccc31)N[C@@H](C1CC1)C(F)(F)CO2` [Example 12x35, (S)-10-((5-chloro-2-(3-(fluoromethyl)azetidin-1-yl)pyrimidin-4-yl)amino)-2-cyclopropyl-3,3-difluoro-7-methyl-1,2,3,4-tetrahydro-[1,4]oxazepino[2,3-c]quinolin-6(7H)-one] was 5.37 nM; that for `Cn1c(=O)c2c(c3cc(Nc4nc(N5CCC(C#N)CC5)ncc4Cl)ccc31)N[C@@H](C1CC1)C(F)(F)CO2` [Example 12x38, (S)-1-(5-chloro-4-((2-cyclopropyl-3,3-difluoro-7-methyl-6-oxo-1,2,3,4,6,7-hexahydro-[1,4]oxazepino[2,3-c]quinolin-10-yl)amino)pyrimidin-2-yl)piperidine-4-carbonitrile] was 3.72 nM; that for `CN(C)C(=O)C1CC(F)CN(c2ncc(Cl)c(Nc3ccc4c(c3)c3c(c(=O)n4C)OCC(F)(F)[C@H](C4CC4)N3)n2)C1` (stereo partly drawn) [Example 12x39, 1-(5-chloro-4-(((S)-2-cyclopropyl-3,3-difluoro-7-methyl-6-oxo-1,2,3,4,6,7-hexahydro-[1,4]oxazepino[2,3-c]quinolin-10-yl)amino)pyrimidin-2-yl)-5-fluoro-N,N-dimethylpiperidine-3-carboxamide] was 2.51 nM. For `Cn1c(=O)c2c(c3cc(Nc4nc(N5CCCC(F)C5)ncc4Cl)ccc31)N[C@@H](C1CC1)C(F)(F)CO2` (stereo partly drawn) [Example 12x40, (2S)-10-((5-chloro-2-(3-fluoropiperidin-1-yl)pyrimidin-4-yl)amino)-2-cyclopropyl-3,3-difluoro-7-methyl-1,2,3,4-tetrahydro-[1,4]oxazepino[2,3-c]quinolin-6(7H)-one], the IC50 is 10.7 nM. In the case of `Cn1c(=O)c2c(c3cc(Nc4nc(N5CCC(F)CC5)ncc4Cl)ccc31)N[C@@H](C1CC1)C(F)(F)CO2` [Example 12x42, (S)-10-((5-chloro-2-(4-fluoropiperidin-1-yl)pyrimidin-4-yl)amino)-2-cyclopropyl-3,3-difluoro-7-methyl-1,2,3,4-tetrahydro-[1,4]oxazepino[2,3-c]quinolin-6(7H)-one], the IC50 is 6.17 nM. As for `Cn1c(=O)c2c(c3cc(Nc4nc(N5CCC[C@H]5CO)ncc4Cl)ccc31)N[C@@H](C1CC1)C(F)(F)CO2` [Example 12x44, (S)-10-((5-chloro-2-((S)-2-(hydroxymethyl)pyrrolidin-1-yl)pyrimidin-4-yl)amino)-2-cyclopropyl-3,3-difluoro-7-methyl-1,2,3,4-tetrahydro-[1,4]oxazepino[2,3-c]quinolin-6(7H)-one], the figure is 5.01 nM.

(Values after US12528826B2, “[1,4]oxazepino[2,3-c]quinolinone derivatives as BCL6 inhibitors” (Cancer Research Technology Limited, priority 2019, dated 2026).)
